The record followed here is ChEMBL document CHEMBL4130390, “Crystal structure of Porphyromonas gingivalis dipeptidyl peptidase 4 and structure-activity relationships based on inhibitor profiling” (Eur J Med Chem, 2017).

Test [1] concerns the target Dipeptidyl peptidase IV (Porphyromonas gingivalis) (UniProt O31048). Description: Inhibition of Porphyromonas gingivalis N-terminal His-tagged DPP4 expressed in Escherichia coli at 10 uM using Gly-Pro-p-nitroanilide as substrate relative to control.
The target is the same in test [2]. Description: Inhibition of Porphyromonas gingivalis N-terminal His-tagged DPP4 expressed in Escherichia coli at 100 uM using Gly-Pro-p-nitroanilide as substrate relative to control.
In test [3] the target is Dipeptidyl peptidase IV (Porphyromonas gingivalis, UniProt O31048). Description: Inhibition of Porphyromonas gingivalis N-terminal His-tagged DPP4 expressed in Escherichia coli using Gly-Pro-p-nitroanilide as substrate. Particulars: for pIC50: read-out: IC50.

pIC50: −log10 of the molar value. A value given as a limit tells only on which side of the number the result lay.

For orientation: inhibition means how much of the control response was suppressed. Higher therefore signals a strong effect. A word on the pIC50: it is the IC50 on a negative log10 scale, so that one unit is a factor of ten.

Sequence of Dipeptidyl peptidase IV (Porphyromonas gingivalis) (O31048 20-723 limits assumed): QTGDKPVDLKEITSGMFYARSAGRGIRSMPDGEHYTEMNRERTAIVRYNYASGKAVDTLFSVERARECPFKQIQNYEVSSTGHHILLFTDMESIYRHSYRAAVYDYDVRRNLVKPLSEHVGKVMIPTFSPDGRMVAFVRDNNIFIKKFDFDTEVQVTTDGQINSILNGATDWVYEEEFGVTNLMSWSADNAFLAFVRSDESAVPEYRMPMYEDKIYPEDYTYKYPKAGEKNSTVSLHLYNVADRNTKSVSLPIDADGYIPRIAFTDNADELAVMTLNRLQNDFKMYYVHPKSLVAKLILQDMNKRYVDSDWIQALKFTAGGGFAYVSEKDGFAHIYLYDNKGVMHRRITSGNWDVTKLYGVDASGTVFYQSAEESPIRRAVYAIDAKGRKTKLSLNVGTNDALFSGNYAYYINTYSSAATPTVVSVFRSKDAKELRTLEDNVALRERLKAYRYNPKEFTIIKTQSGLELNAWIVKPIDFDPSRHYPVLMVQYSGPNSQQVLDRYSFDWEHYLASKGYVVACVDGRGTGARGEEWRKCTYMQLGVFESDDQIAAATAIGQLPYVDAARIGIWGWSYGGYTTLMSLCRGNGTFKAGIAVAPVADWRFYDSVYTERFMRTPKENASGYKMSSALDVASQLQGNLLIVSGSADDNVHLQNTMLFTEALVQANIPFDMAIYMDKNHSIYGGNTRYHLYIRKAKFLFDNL
Sequence of Dipeptidyl peptidase IV (O31048 20-723 limits assumed): as above

Turning to `NC(CC(=O)N1CCN(C(c2ccc(F)cc2)c2ccc(F)cc2)CC1)C(=O)N1CCC(C(F)(F)F)C1` (centres undefined), the figures for the inhibition in test [1] and in test [2] were above 50% and below 50%, respectively. Moreover, the IC50 entry in test [3] is “IC50 10-100 uM”.

As to `NC(CCCCNC(=O)Oc1ccccc1)C(=O)N1CCCC1` (centres undefined), the inhibition was above 50% in test [1] and below 50% in test [2]. Moreover, the IC50 result in test [3] was “IC50 10-100 uM”.

As for `CCC(C)C(N)C(=O)N1CCC(C)C1` (centres undefined), the inhibition is above 50% in test [1] and below 50% in test [2]. Besides, the IC50 entry in test [3] was “IC50 10-100 uM”.

On to `NC(CCCCNC(=O)Nc1ccccc1)C(=O)N1CCCC1` (centres undefined), for which the results for the inhibition in test [1] and in test [2] were above 50% and below 50%, respectively. In addition, the IC50 result in test [3] is given as “IC50 10-100 uM”.

For `NC(CCCCNCc1ccc2ccccc2c1)C(=O)N1Cc2ccccc2C1` (centres undefined), the inhibition is above 50% in test [1] and below 50% in test [2]. In addition, in test [3], the IC50 entry was “IC50 10-100 uM”.

Take `C=C1CCN(C(=O)C(N)C(C)CC)C1` (centres undefined): the inhibition in test [1] was above 50%; in test [2] it was below 50%. In addition, the IC50 entry in test [3] is recorded as “IC50 10-100 uM”.

`CN(CCCCC(N)C(=O)N1CCCC1)Cc1ccccc1` (centres undefined): the inhibition in test [1] is above 50%; in test [2] it was below 50%. For the same compound, the IC50 result in test [3] is “IC50 10-100 uM”.

As for `NC(CCCNC(=NC(=O)OCc1ccccc1)NC(=O)OCc1ccccc1)C(=O)N1CCCC1` (centres undefined), the values for the inhibition in test [1] and in test [2] were above 50% and below 50%, respectively. In addition, the IC50 result in test [3] is on record as “IC50 10-100 uM”.

Turning to `N=C(N)NCCCC(N)C(=O)N1CCCC1` (centres undefined), the inhibition is above 50% in test [1] and below 50% in test [2]. Besides, the IC50 entry in test [3] was “IC50 10-100 uM”.

With `CC[C@@H](C)[C@H](N)C(=O)N1Cc2ccccc2C1`, in test [1], the inhibition is above 50%. Further, in test [3], the IC50 entry is reported as “IC50 10-100 uM”.

With `NC(C(=O)N1Cc2ccccc2C1)C1CCCCC1` (centres undefined), the inhibition in test [1] was above 50%; in test [2], below 50%. For the same compound, the IC50 entry in test [3] was “IC50 10-100 uM”.

With `O=C(C1CC(NCc2ccc3ccccc3c2)CN1)N1Cc2ccccc2C1` (centres undefined), the inhibition is above 50% in test [1] and below 50% in test [2]. For the same compound, in test [3], the IC50 entry was “IC50 10-100 uM”.

With `CC1CCN(C(=O)C(N)CC(=O)N2CCN(C(c3ccc(F)cc3)c3ccc(F)cc3)CC2)C1` (centres undefined), the inhibition is above 50% in test [1] and below 50% in test [2]. The IC50 result in test [3] was “IC50 10-100 uM”.

With `CS(=O)(=O)NCCCCC(N)C(=O)N1CCCC1` (centres undefined), the inhibition was above 50% in test [1] and below 50% in test [2]. In addition, the IC50 result in test [3] is on record as “IC50 10-100 uM”.

For the compound `CCC(C)C(N)C(=O)N1CC=CC1` (centres undefined), the inhibition in test [1] was above 50%; in test [2], below 50%. Besides, the IC50 entry in test [3] is given as “IC50 10-100 uM”.

Regarding `NCCCCC(N)C(=O)N1Cc2ccccc2C1` (centres undefined), the inhibition in test [1] was above 50%; in test [2] it was below 50%. Further, in test [3], the IC50 entry is reported as “IC50 10-100 uM”.

Regarding `CC[C@H](C)[C@H](N)C(=O)N1CCC(F)C1` (some centres undefined), the inhibition was above 50% in test [1] and below 50% in test [2]. Moreover, the IC50 result in test [3] was “IC50 10-100 uM”.

`Cc1ccc(S(=O)(=O)NCCCCC(N)C(=O)N2CCCC2)cc1` (centres undefined): the inhibition in test [1] was above 50%; in test [2], below 50%. The IC50 entry in test [3] is “IC50 10-100 uM”.

For the compound `CC(=O)NCCCCC(N)C(=O)N1CCCC1` (centres undefined), the inhibition in test [1] was above 50%; in test [2], below 50%. For the same compound, the IC50 entry in test [3] is given as “IC50 10-100 uM”.

Consider `CCC(C)C(N)C(=O)N1CC=CCC1` (centres undefined), for which the inhibition in test [1] is above 50%; in test [2], below 50%. The IC50 result in test [3] was “IC50 10-100 uM”.

On to `N#CC1CC(N=[N+]=[N-])CN1C(=O)C(N)CCCCN(Cc1ccc2ccccc2c1)Cc1ccc2ccccc2c1` (centres undefined), for which the inhibition in test [1] was above 50%; in test [2], below 50%. Besides, the pIC50 in test [3] is 6.24.

Turning to `CC(O)C(N)C(=O)N1CCCC1` (centres undefined), the figures for the inhibition in test [1] and in test [2] were above 50% and below 50%, respectively. For the same compound, the pIC50 in test [3] is 4.00.

In the case of `NC(CCCCN(Cc1ccccc1)Cc1ccccc1)C(=O)N1Cc2ccccc2C1` (centres undefined), the inhibition in test [1] was above 50%; in test [2], below 50%. Further, in test [3], the IC50 entry was “IC50 10-100 uM”.

Consider `CCCCC(N)C(=O)N1CCCC1` (centres undefined), for which the inhibition in test [1] was above 50%; in test [2], below 50%. In addition, the IC50 result in test [3] is reported as “IC50 10-100 uM”.

For `CC[C@@H](C)[C@@H](N)C(=O)N1CCC(C#N)C1` (some centres undefined), the inhibition in test [1] was above 50%; in test [2], below 50%. Besides, the IC50 entry in test [3] is reported as “IC50 10-100 uM”.

Consider `N[C@@H](CC(=O)N1CCN(C(c2ccc(F)cc2)c2ccc(F)cc2)CC1)C(=O)N1CCCCC1`, for which the values for the inhibition in test [1] and in test [2] were above 50% and below 50%, respectively. Besides, in test [3], the IC50 result is “IC50 10-100 uM”.

For the compound `CCC(C)C(N)C(=O)N1CCC(N=[N+]=[N-])C1` (centres undefined), the figures for the inhibition in test [1] and in test [2] were above 50% and below 50%, respectively. In addition, the IC50 result in test [3] is “IC50 10-100 uM”.

On to `N[C@@H](CC(=O)N1CCn2c(nnc2C(F)(F)F)C1)Cc1cc(F)c(F)cc1F` [SITAGLIPTIN], for which the results for the inhibition in test [1] and in test [2] were above 50% and below 50%, respectively. For the same compound, the pIC50 in test [3] is 4.74.

In the case of `CC(C)[C@H](N)C(=O)N1CCCC1`, in test [1], the inhibition was above 50%. Also, the pIC50 in test [3] was 4.54.

As to `CC[C@@H](C)[C@H](N)C(=O)N1C[C@H](N=[N+]=[N-])C[C@H]1C#N`, the inhibition in test [1] is above 50%; in test [2], below 50%. Besides, in test [3], the IC50 entry is given as “IC50 10-100 uM”.

Take `NC(CCCNC(=O)OCc1ccccc1)C(=O)N1CCCC1` (centres undefined): the inhibition is above 50% in test [1] and below 50% in test [2]. For the same compound, in test [3], the IC50 result was “IC50 10-100 uM”.

Consider `N#CC1CC(N=[N+]=[N-])CN1C(=O)C1CC(NCc2ccc3ccccc3c2)CN1` (centres undefined), for which the inhibition is above 50% in test [1] and below 50% in test [2]. The IC50 entry in test [3] was “IC50 10-100 uM”.

In the case of `CC1C[C@@H](C#N)N(C(=O)[C@@H](N)CC(=O)N2CCN(C(c3ccc(F)cc3)c3ccc(F)cc3)CC2)C1` (some centres undefined), the inhibition is above 50% in test [1] and below 50% in test [2]. Also, in test [3], the IC50 entry was “IC50 10-100 uM”.

Turning to `C=C1CC(C)N(C(=O)C(N)CCC(=O)N2CCN(C(c3ccc(F)cc3)c3ccc(F)cc3)CC2)C1` (centres undefined), the values for the inhibition in test [1] and in test [2] were above 50% and below 50%, respectively. Further, the IC50 result in test [3] is recorded as “IC50 10-100 uM”.

As to `CCC(C)C(N)C(=O)N1Cc2ccccc2C1` (centres undefined), the inhibition in test [1] is above 50%; in test [2] it was below 50%. Moreover, in test [3], the IC50 entry is given as “IC50 10-100 uM”.

For the compound `C=C1CCN(C(=O)C(N)CC(=O)N2CCN(C(c3ccc(F)cc3)c3ccc(F)cc3)CC2)C1` (centres undefined), the inhibition in test [1] is above 50%; in test [2], below 50%. In addition, in test [3], the IC50 entry is on record as “IC50 10-100 uM”.

Take `NC(CC(=O)N1CCN(C(c2ccccc2)c2ccc(Cl)cc2)CC1)C(=O)N1Cc2ccccc2C1` (centres undefined): the inhibition in test [1] is above 50%; in test [2], below 50%. Besides, the IC50 entry in test [3] is “IC50 10-100 uM”.

`NC(CCCCNC(=O)c1ccccc1)C(=O)N1CCCC1` (centres undefined): the inhibition was above 50% in test [1] and below 50% in test [2]. Besides, in test [3], the IC50 entry is recorded as “IC50 10-100 uM”.

As to `CC[C@H](C)[C@H](N)C(=O)N1CCSC1`, the inhibition in test [1] is above 50%. In addition, the pIC50 in test [3] was 4.72.
